Numbers after ± are expanded uncertainties.
What was measured:
[1] = Liquid; for mass density: 101.3 kPa; for viscosity: 101 kPa
[2] = xn = mol fraction of the nth substance listed; details: Liquid, x2 = 0; for viscosity: 101 kPa; for mass density: 101.3 kPa

SMILES	viscosity ([1]; 313.15 K) [mPa·s]	viscosity ([1]; 323.15 K) [mPa·s]	mass density ([1]; 323.15 K) [kg/m3]	mass density ([1]; 328.15 K) [kg/m3]	viscosity ([1]; 333.15 K) [mPa·s]	mass density ([1]; 333.15 K) [kg/m3]	mass density ([1]; 338.15 K) [kg/m3]	viscosity ([1]; 343.15 K) [mPa·s]	mass density ([1]; 343.15 K) [kg/m3]	mass density ([1]; 348.15 K) [kg/m3]	viscosity ([1]; 353.15 K) [mPa·s]	mass density ([1]; 353.15 K) [kg/m3]	mass density ([1]; 358.15 K) [kg/m3]	mass density ([1]; 363.15 K) [kg/m3]	further results
CN(C)CCO [2-(N,N-dimethylamino)ethanol]	2.238 ± 0.033	1.756 ± 0.026	861.902 ± 1.4	857.46 ± 1.4	1.413 ± 0.021	852.965 ± 1.4	848.423 ± 1.5	1.156 ± 0.017	843.844 ± 1.5	839.205 ± 1.5	0.963 ± 0.015	834.521 ± 1.5	829.779 ± 1.6	824.969 ± 1.6	mass density ([1]; 293.15 K): 887.816 ± 1.2 kg/m3; mass density ([1]; 298.15 K): 883.578 ± 1.2 kg/m3; mass density ([1]; 303.15 K): 879.315 ± 1.3 kg/m3; mass density ([1]; 308.15 K): 875.017 ± 1.3 kg/m3; mass density ([1]; 313.15 K): 870.686 ± 1.3 kg/m3; mass density ([1]; 318.15 K): 866.316 ± 1.3 kg/m3
O [water]	0.651 ± 0.01	0.544 ± 0.009	988.03 ± 0.57	985.688 ± 0.59	0.463 ± 0.008	983.191 ± 0.6	980.546 ± 0.62	0.396 ± 0.007	977.759 ± 0.64	974.838 ± 0.66	0.348 ± 0.006	971.785 ± 0.68	968.606 ± 0.7	965.305 ± 0.72	–
O [water] + CN(C)CCO	–	–	–	–	–	–	–	–	–	–	–	–	–	–	viscosity ([2]; 313.15 K): 0.651 ± 0.01 mPa·s; viscosity ([2]; 323.15 K): 0.544 ± 0.009 mPa·s; mass density ([2]; 323.15 K): 988.03 ± 0.57 kg/m3; mass density ([2]; 328.15 K): 985.688 ± 0.59 kg/m3; viscosity ([2]; 333.15 K): 0.463 ± 0.008 mPa·s; mass density ([2]; 333.15 K): 983.191 ± 0.6 kg/m3; mass density ([2]; 338.15 K): 980.546 ± 0.62 kg/m3; viscosity ([2]; 343.15 K): 0.396 ± 0.007 mPa·s; mass density ([2]; 343.15 K): 977.759 ± 0.64 kg/m3; mass density ([2]; 348.15 K): 974.838 ± 0.66 kg/m3; viscosity ([2]; 353.15 K): 0.348 ± 0.006 mPa·s; mass density ([2]; 353.15 K): 971.785 ± 0.68 kg/m3; mass density ([2]; 358.15 K): 968.606 ± 0.7 kg/m3; mass density ([2]; 363.15 K): 965.305 ± 0.72 kg/m3
